Laboratory results published in patent US7670782B2, “Screening of compounds for CAT1 transporter activity” (XenoPort, Inc., priority 2005, dated 2010).
Values belong to the compound of their own block, whether it stands above or below them.

How the values were obtained:
[1] = biological target: T1, hCAT1 (Homo sapiens, UniProt P30825); experiment: hCAT1 competition uptake assay (inhibition of 3H-arginine uptake into LLCPK-TREx-hCAT1 cells); assay type: cell-based; conditions: 3H-arginine as substrate; for IC50: LLCPK-TREx-hCAT1 cells induced to express hCAT1, 10 minutes at room temperature
T1 construct: expressed in transfected cells; host or cells: LLCPK-TREx (porcine kidney epithelial) cells, induced with tetracycline and butyrate
Protocol: A modified competition uptake assay was developed to determine the ability of a test compound(s) to inhibit the uptake of radiolabeled substrates into LLCPK-TREx-hCAT1 cells induced to over-express hCAT1. The results are stated as affinities (IC50).
The competition uptake assay was prepared as follows: Compounds were prepared for assay by diluting a 100 mM stock concentration (in DMSO) to the appropriate working concentration. Typically, seven-point dose response curves were prepared starting at a final assay concentration of 3 mM and carrying out three-fold dilutions. These dilutions were prepared by making a working “compound” plate that contained a 2×solution of the desired starting concentration of each test compound in duplicate in row A of a v-bottom microtiter plate. Six 3-fold serial dilutions (from row B to G) were made into the sodium free HBSS assay buffer (60 mg/L KH2PO4 (0.4 mM) (Sigma; P-0662); 0.42 g/L KHCO3 (4.17 mM); (Sigma; P-6037); 1 g/L Glucose ([…]) (Sigma; G-7528); 2.1 g/L MOPS (10 mM) (Sigma; M-1254); 1.05 ml/L MgCl2.(H2O)6 (Sigma; M-1028); 100 mg/L MgSO4.(H2O)7 (Sigma; M-5921); 140 mg/L CaCl2 (1.3 mM)(Sigma; C-5080); 19.1 g/L Choline Chloride (137 mM) (Sigma; C-7527), pH to 7.4 with KOH) with the appropriate amount of DMSO so that the DMSO concentration remained constant at all dilutions. The resulting “compound” plate contained serial dilutions of six compounds in duplicate. The final row (H) of the assay plate was filled with HBSS buffer alone (H1-H6) or 10 mM unlabeled Arginine in HBSS (H7-H12) to measure the total or non-specific uptake, respectively.
^3H-Arginine was diluted into HBSS buffer to a final concentration of 4,000 cpm/μl. Sufficient solution was prepared to allow addition of 25 μl/well (the final concentration was 100,000 cpm/well).
LLCPK-TREx-hCAT1 cells, plated in 96-well plates and treated with 2 mM butyrate and tetracycline (or tet analog (e.g., doxycycline), were removed from the CO2 incubator. Growth media was removed from the cells, and the cells were washed twice in room temperature HBSS (100 μl/well/wash) using a 96-well plate washer (Bio Tek ELX405). Alternatively, cells were washed manually with equivalent volumes using a multichannel pipettor. Immediately before beginning the assay, the final 100 μl wash solution was removed from the cells by aspiration.
Using a 96-well pipettor, 25 μl from the “compound” plate was added to each well of the cell plate. The assay was started by adding 25 μl of the ^3H-Arginine working solution. The plate was incubated at room temperature for 10 minutes. The assay was stopped by washing the cells four times with ice-cold HBSS buffer using a ELX405 plate washer (100 μl buffer/well/wash) having an angled buffer dispenser.
Scintillation fluid (200 μl) (Optiphase Supermix (Perkin Elmer) was added to each well, and the plate was covered with a 96-well adhesive plate cover and placed on a shaker for 20 minutes. The plates were counted on a 96-well plate scintillation counter for 60 sec/well. The data were analyzed using a sigmoidal dose response curve-fitting program (Prism, GraphPad, Inc, San Diego, Calif.; equation: one-site competition).
The competition experiment was performed as described in Example 7. Non-specific uptake was determined by measuring the uptake into cells not induced to express the transporter (“no tet”). […] In control cells, uptake of labeled arginine remained at background levels and was largely unaffected by an excess of unlabeled substrates.

[2] = biological target: T1, hCAT1; experiment: hCAT1 direct uptake assay (LC-MS-MS, LLCPK-TREx-hCAT1 cells induced vs no tet); assay type: cell-based; conditions: direct uptake into LLCPK-TREx-hCAT1 cells
Protocol: Four concentrations (bracketing the affinity as measured by competition assays) per compound were routinely tested. Non-specific uptake was determined by measuring the uptake into cells not induced to express the transporter (“no tet”).
Typically, four concentrations bracketing the IC50 were tested. […] The samples were robustly vortexed and centrifuged for 10 minutes at 13,200 rpm to spin down any precipitate. […] Three additional 2-fold dilutions were made in the subsequent rows (B-D or […]) in HBSS.
An internal standard of 50 μM propranolol in 50:50 ethanol:water was also prepared.
The cells were washed twice in room temperature HBSS (100 μl/well/wash) using a 96-well plate washer (Bio Tek ELX405). Alternatively, cells were washed manually with equivalent volumes using a multichannel pipettor. Immediately before the assay was begun, the final 100 μl wash solution was removed from the cells.
After the final wash, as much of the wash buffer as possible was removed by aspirating the wells with a probe that reached the bottom of the wells. (Residual salts from the wash buffer can adversely affect the LC-MS-MS by disrupting the LC method or by suppressing the MS signal.) 150 μl of a 50:50 ethanol:water solution was added to each well to lyse the cells and extract the test compound. The plate was covered and allowed to sit for 20 minutes at room temperature to ensure cell lysis.
120 μl of the cell extract was removed from each well and transferred to a fresh 96-well v-bottom polypropylene plate. This plate was covered with an adherent cover (top seal) and centrifuged for 15 minutes at 5,700 rpm (Allegra 25R centrifuge) at 4° C. to pellet any cell precipitate. 10 μl of the 50 μM propranolol solution was added to each well of a fresh 96-well plate (a plate amenable for sampling in the LC-MS-MS). […] The levels of intracellular compounds were determined by converting the peak area to concentration by extrapolating from the standard curve for each compound. Uptake was expressed as μM/well.

[3] = biological target: T2, PgP (Homo sapiens, UniProt P08183); experiment: Transwell monolayer efflux assay in MDCK cells transfected with TREx-PgP; assay type: in vitro ADME; conditions: 2.5 nM 3H-vinblastine, absence and presence of 250 μM verapamil
T2 construct: purchased BD Biosciences; host or cells: baculovirus membranes
Protocol: Transwell monolayer efflux assays can be performed by transfecting MDCK cells with the tetracycline-inducible TREx-PgP expression vector. The cells optionally can be transfected with a nucleic acid encoding the transporter of interest. The transfected cells are seeded on polycarbonate filter membranes in transwell dishes and grown for 3-5 days, yielding a polarized monolayer with tight junctions between cells.

T1 sequence (P30825 whole entry): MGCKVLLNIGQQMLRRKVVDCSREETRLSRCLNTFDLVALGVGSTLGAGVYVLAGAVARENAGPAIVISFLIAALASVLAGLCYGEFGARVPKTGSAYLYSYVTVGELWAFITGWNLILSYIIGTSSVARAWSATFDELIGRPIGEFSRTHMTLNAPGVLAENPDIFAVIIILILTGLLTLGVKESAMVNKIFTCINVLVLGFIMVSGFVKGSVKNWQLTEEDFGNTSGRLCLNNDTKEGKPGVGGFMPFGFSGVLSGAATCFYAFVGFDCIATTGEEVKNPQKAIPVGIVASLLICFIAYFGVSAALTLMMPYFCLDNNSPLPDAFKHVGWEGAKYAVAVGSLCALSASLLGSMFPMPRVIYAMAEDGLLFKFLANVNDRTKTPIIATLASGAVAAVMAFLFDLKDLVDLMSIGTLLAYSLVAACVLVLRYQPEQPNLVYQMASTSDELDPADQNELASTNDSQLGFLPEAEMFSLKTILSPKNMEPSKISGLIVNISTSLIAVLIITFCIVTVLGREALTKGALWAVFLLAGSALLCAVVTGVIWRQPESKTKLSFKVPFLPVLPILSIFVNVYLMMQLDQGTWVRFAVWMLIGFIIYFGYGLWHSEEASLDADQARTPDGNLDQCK
T2 sequence (P08183 whole entry): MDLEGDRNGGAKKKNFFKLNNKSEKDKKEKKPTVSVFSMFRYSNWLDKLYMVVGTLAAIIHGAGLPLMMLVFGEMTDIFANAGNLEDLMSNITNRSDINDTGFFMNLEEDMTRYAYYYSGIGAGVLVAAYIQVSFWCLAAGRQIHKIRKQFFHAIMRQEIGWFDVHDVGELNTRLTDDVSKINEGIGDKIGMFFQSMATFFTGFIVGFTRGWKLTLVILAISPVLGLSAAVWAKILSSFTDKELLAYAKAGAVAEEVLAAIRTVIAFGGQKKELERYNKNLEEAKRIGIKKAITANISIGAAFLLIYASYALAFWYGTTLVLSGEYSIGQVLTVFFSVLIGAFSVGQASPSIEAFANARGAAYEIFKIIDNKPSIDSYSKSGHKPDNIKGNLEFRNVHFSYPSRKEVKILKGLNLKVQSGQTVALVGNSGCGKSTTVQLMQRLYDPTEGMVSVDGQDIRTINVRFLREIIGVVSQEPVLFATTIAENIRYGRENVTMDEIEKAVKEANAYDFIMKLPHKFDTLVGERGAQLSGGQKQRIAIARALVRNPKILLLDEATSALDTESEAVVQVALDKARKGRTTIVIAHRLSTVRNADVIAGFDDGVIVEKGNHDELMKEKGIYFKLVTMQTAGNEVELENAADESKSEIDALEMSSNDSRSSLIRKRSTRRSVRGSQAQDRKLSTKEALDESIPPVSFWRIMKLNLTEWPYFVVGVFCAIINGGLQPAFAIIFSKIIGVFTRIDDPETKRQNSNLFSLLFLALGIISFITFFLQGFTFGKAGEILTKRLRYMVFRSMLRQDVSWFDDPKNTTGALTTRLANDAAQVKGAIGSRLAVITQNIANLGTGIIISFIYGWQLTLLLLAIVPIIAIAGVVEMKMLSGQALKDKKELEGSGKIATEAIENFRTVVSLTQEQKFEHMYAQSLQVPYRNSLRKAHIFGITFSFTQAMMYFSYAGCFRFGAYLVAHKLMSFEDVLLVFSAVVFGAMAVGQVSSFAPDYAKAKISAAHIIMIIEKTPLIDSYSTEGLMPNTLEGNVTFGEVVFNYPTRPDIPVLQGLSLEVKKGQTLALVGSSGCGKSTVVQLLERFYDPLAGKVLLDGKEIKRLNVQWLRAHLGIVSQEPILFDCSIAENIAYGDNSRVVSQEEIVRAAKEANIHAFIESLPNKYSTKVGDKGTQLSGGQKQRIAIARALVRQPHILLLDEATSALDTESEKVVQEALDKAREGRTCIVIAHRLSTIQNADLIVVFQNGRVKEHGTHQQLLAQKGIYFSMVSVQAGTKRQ

Compound: N-methyl arginine [N-Me-Arg]
pIC50 ([1]; LLCPK-TREx-hCAT1 cells induced to express hCAT1): 3.7
IC50 [1]: 190 µM
pKm [2]: 3.8
Vmax ([2]; 5 minutes at room temperature): 3.9 μM/well
Km ([2]; 5 minutes at room temperature, specific uptake (+TET minus no TET)): 158 µM

IC50 [1]: 73 µM
Compound: NCCC[C@H](N)C(=O)O [Ornithine, ornithine]

IC50 [1]: 140 µM
Compound: NCCCC[C@H](N)C(=O)O [Lysine, lysine]

PgP substrate status from apical to basolateral and basolateral to apical transport [3]: substrate of PgP
Compound: CC[C@]1(O)C[C@@H]2CN(CCc3c([nH]c4ccccc34)[C@@](C(=O)OC)(c3cc4c(cc3OC)N(C)[C@H]3[C@@](O)(C(=O)OC)[C@H](OC(C)=O)[C@]5(CC)C=CCN6CC[C@]43[C@@H]65)C2)C1 [^3H-vinblastine, vinblastine]

IC50 [1]: 83 µM
Compound: N=C(N)NCCC[C@H](N)C(=O)O [Arginine, arginine]
